# Measured values published in patent US6214805A, “RNase L activators and antisense oligonucleotides effective to treat RSV infections” (priority 1997, dated 2001).
# What was measured:
# [1] = system: RSV strain A2; experiment: Antiviral activity in Hep-2 cells, neutral red (reduction of RSV-induced CPE); assay type: cell-based, Respiratory syncytial virus
# Text: (§1) A comparison of the efficacies of spA4 -antiRSV3'3'T/(8281-8299) treatment and conventional ribarvirin treatment can be obtained by determining the RSV-inhibitory concentration and the cytotoxic concentration of each compound. Cultures of the human laryngeal carcinoma cell line HEp-2 and the […] renal cell line MA-104 were established and infected with an MOI=0.005. Cultures were fed twice daily. Treatment with either ribavirin or spA4 -antiRSV3'3'T/(8281-8299) was begun simultaneously with infection and continued for four days. Treatment was then withdrawn and the test read on day 5. The effects of treatment on RSV infection were reported as 1) an EC50, the concentration at which there was a 50% reduction in the observable cytopathic effects of infection and 2) an EC90, the concentration at which there was a 90% reduction in viral production. […] Therapeutic efficacy is estimated by the Selectivity Index, which is the ratio of IC50 /EC50.
# determined with RSV strain A2, MOI = 0.005
# (§2) Fresh medium and oligo or ribavirin added twice daily for 4 d and test read
# (§3) EC50 effective concentration to reduce RSV-induced CPE by 50%.
# [2] = system: Hep-2 Cells; experiment: Cytotoxicity to Hep-2 cells (visual and dye uptake, rapidly dividing cells); assay type: cell-based, human; details: Homo sapiens
# Text: as §1
# IC50 50% inhibitory concentration for cytotoxicity to cells (visual
# [3] = system: RSV strain A2; experiment: Antiviral activity in MA-104 cells, visual CPE; assay type: cell-based, Respiratory syncytial virus
# Text: as §1
# (§4) as determined with RSV strain A2, MOI = 0.005
# as §2, §3
# [4] = system: RSV strain A2; experiment: Virus yield reduction in MA-104 cells; assay type: cell-based, Respiratory syncytial virus; details: human respiratory syncytial virus, MA104, 96 h, RSV yield reduced by 90%, MOI = 0.005, added twice daily for 4 d
# Text: as §1, §4, §2
# EC90 effective concentration to reduce RSV yield by 90%.
# [5] = system: RSV strain A2; experiment: CPE inhibition assay in HEp-2 cells; assay type: cell-based, Respiratory syncytial virus; details: for EC50: human respiratory syncytial virus
# Protocol: The CPE inhibition assay used in this study was performed as described by Sidwell and Huffman (Sidwell et al., 1971, Appl. Microbiol. 22:7979-7801) with slight modifications. Varying concentrations of test compounds were added to each plate containing near confluent cell monolayers (1×10^5 cells/well) followed immediately by the addition of virus at a multiplicity of infection (MOI)=0.01, and then incubated at 37° C. […] All compounds were assayed for virus inhibition in quadruplicate and for cytotoxicity in duplicate. For each compound, two wells were set aside as uninfected, untreated cell controls per test and four wells per test received virus only and represented controls for virus replication. […] For all CPE-based assays, the 50% effective concentration (EC50) was calculated by regression analysis using the means of the CPE ratings at each concentration of compound.
# [6] = system: RSV strain A2; experiment: Neutral red uptake assay of CPE inhibition in HEp-2 cells; assay type: cell-based, Respiratory syncytial virus; details: for EC50: human respiratory syncytial virus
# Protocol: This assay was performed by a modified method as described by Cavenaugh et al. (Cavenaugh et al. 1990, Invest. New Drugs 8:347-354). Briefly, medium was removed from each well of a plate scored for CPE from a CPE inhibition assay, 0.2 ml of neutral red (0.034% in PSS) was added to each of the wells of that plate and the plate incubated for 2 hr at 37° C. in the dark. The neutral red solution was removed from the wells and the wells rinsed twice with PBS (pH 7.4). Equal volumes (0.1 ml) of absolute ethanol and Sorenson citrate buffer (0.1 M sodium citrate, 0.1 M HCI, pH 4.2) were mixed together and added to each well. Plates were incubated in the dark for 30 min. at room temperature to solubilize the dye. The plates were then gently mixed on a 96-well plate adapted vortexer for 1 min. Absorbances at 540 nm and 450 nm were read with a microplate reader (Bio-Tek EL 1309; Bio-Tek Instruments, Inc. Winooski, Vt.). Absorbance values were expressed as percents of untreated controls and EC50 and IC50 values were calculated by regression analysis.
# [7] = system: RSV Long (A); experiment: CPE inhibition assay in HEp-2 cells, RSV strain Long; assay type: cell-based, Respiratory syncytial virus; details: Table 12, CPE
# Protocol: The CPE inhibition assay used in this study was performed as described by Sidwell and Huffman (Sidwell et al., 1971, Appl. Microbiol. 22:7979-7801) with slight modifications. Varying concentrations of test compounds were added to each plate containing near confluent cell monolayers (1×10^5 cells/well) followed immediately by the addition of virus at a multiplicity of infection (MOI)=0.01, and then incubated at 37° C. On the following day, the medium from each plate was removed and fresh compound added. The assay was stopped at the end of the sixth day when the virus cytopathic effect in the virus infected, untreated control cells affected all cells. All compounds were assayed for virus inhibition in quadruplicate and for cytotoxicity in duplicate. For each compound, two wells were set aside as uninfected, untreated cell controls per test and four wells per test received virus only and represented controls for virus replication. […] For all CPE-based assays, the 50% effective concentration (EC50) was calculated by regression analysis using the means of the CPE ratings at each concentration of compound.
# In this series, MP351 was added once a day for two days with fresh medium
# [8] = in vivo; cited from earlier work
smiles,measurement,setting,value
NC(=O)c1ncn([C@@H]2O[C@H](CO)[C@@H](O)[C@H]2O)n1 [Ribavirin],SI selectivity index = IC50/EC50,[1],10
same,EC50,"[1]; human respiratory syncytial virus, 96 h, neutral red, MOI = 0.005, added twice daily for 4 d, read on d 5",4 µM
same,IC50,[2],41 µM
same,SI selectivity index = IC50/EC50,[3],210
same,EC50,"[3]; human respiratory syncytial virus, MA104, 96 h, visual CPE, MOI = 0.005, added twice daily for 4 d, read on d 5",1 µM
same,SI selectivity index = IC50/EC50,[3]; listed as ribavirin,about 200
same,EC90,[4],7 µM
same,SI,"[5]; Table 10, CPE, B.I.D. 2 days, HEp2",> 57
same,SI,"[5]; Table 10, CPE, B.I.D. 3 days, HEp2",> 180
same,SI,"[5]; Table 10, CPE, B.I.D. 4 days, HEp2",57
same,SI,"[5]; Table 10, CPE, q.d. 1 day (added along with virus, never replenished), HEp2",57
same,SI,"[5]; Table 10, CPE, q.d. 3 days, HEp2",> 57
same,SI,"[5]; Table 10, CPE, q.d. 4 days, HEp2",> 57
same,SI,"[5]; Table 13, CPE, q.d., Day 0, HEp-2",30
same,SI,"[5]; Table 13, CPE, q.d., Day 1, HEp-2",8
same,SI,"[5]; Table 13, CPE, q.d., Day 2, HEp-2",80
same,EC50,"[5]; HEp-2, 0 h, Table 13, CPE, q.d., Day 0 (added immediately after virus exposure), HEp-2",12 µM
same,EC50,"[5]; HEp-2, 24 h, Table 10, CPE, q.d. 1 day (added along with virus, never replenished), HEp2",4 µM
same,EC50,"[5]; HEp-2, 24 h, Table 13, CPE, q.d., fresh compound up to Day 1 post infection, HEp-2",4 µM
same,EC50,"[5]; HEp-2, 48 h, Table 10, CPE, B.I.D. 2 days, HEp2, read-out: EC50",< 4 µM
same,EC50,"[5]; HEp-2, 48 h, Table 13, CPE, q.d., fresh compound up to Day 2 post infection, HEp-2, read-out: EC50",4 µM
same,EC50,"[5]; HEp-2, 72 h, Table 10, CPE, B.I.D. 3 days, HEp2, read-out: EC50",< 4 µM
same,EC50,"[5]; HEp-2, 72 h, Table 10, CPE, q.d. 3 days, HEp2, read-out: EC50",< 4 µM
same,EC50,"[5]; HEp-2, 96 h, Table 10, CPE, B.I.D. 4 days, HEp2, read-out: EC50",4 µM
same,EC50,"[5]; HEp-2, 96 h, Table 10, CPE, q.d. 4 days, HEp2, read-out: EC50",< 4 µM
same,SI,"[6]; Table 11, neutral red, B.I.D. 2 days, HEp2",130
same,SI,"[6]; Table 11, neutral red, B.I.D. 3 days, HEp2",> 175
same,SI,"[6]; Table 11, neutral red, B.I.D. 4 days, HEp2",75
same,SI,"[6]; Table 11, neutral red, q.d. 1 day (added along with virus, never replenished), HEp2",> 120
same,SI,"[6]; Table 11, neutral red, q.d. 3 days, HEp2",126
same,SI,"[6]; Table 11, neutral red, q.d. 4 days, HEp2",36
same,SI,"[6]; Table 13, neutral red, q.d., Day 0, HEp-2",27
same,SI,"[6]; Table 13, neutral red, q.d., Day 1, HEp-2",28
same,SI,"[6]; Table 13, neutral red, q.d., Day 2, HEp-2",80
same,EC50,"[6]; HEp-2, 0 h, Table 13, neutral red, q.d., Day 0 (added immediately after virus exposure), HEp-2",12 µM
same,EC50,"[6]; HEp-2, 24 h, Table 11, neutral red, q.d. 1 day (added along with virus, never replenished), HEp2",4 µM
same,EC50,"[6]; HEp-2, 24 h, Table 13, neutral red, q.d., fresh compound up to Day 1 post infection, HEp-2",40 µM
same,EC50,"[6]; HEp-2, 48 h, Table 11, neutral red, B.I.D. 2 days, HEp2",8 µM
same,EC50,"[6]; HEp-2, 48 h, Table 13, neutral red, q.d., fresh compound up to Day 2 post infection, HEp-2, read-out: EC50",4 µM
same,EC50,"[6]; HEp-2, 72 h, Table 11, neutral red, B.I.D. 3 days, HEp2, read-out: EC50",< 4 µM
same,EC50,"[6]; HEp-2, 72 h, Table 11, neutral red, q.d. 3 days, HEp2, read-out: EC50",8 µM
same,EC50,"[6]; HEp-2, 96 h, Table 11, neutral red, B.I.D. 4 days, HEp2, read-out: EC50",8 µM
same,EC50,"[6]; HEp-2, 96 h, Table 11, neutral red, q.d. 4 days, HEp2, read-out: EC50",20 µM
same,SI,[7],17
same,EC50,"[7]; human respiratory syncytial virus, 48 h, once a day for two days",12 µM
same,half-life,[8],40 days
